Literature values in US11136546B2, “Recombinant Escherichia coli and application of the same” (Zhengzhou Zhonghao Biological Technology Co., Ltd., priority 2018, dated 2021).
Where no end group is shown, it is not given here.

How the values were obtained:
[1] = test system: pathogenic E. coli; details: in vitro bacteriostatic tests; a variety of pathogenic E. coli
[2] = test system: Salmonella; details: in vitro bacteriostatic tests

For “Microcin J25: antibacterial lasso peptide consisting of 21 amino acids (SEQ ID No.: 4), obtained by fermentation of genetically engineered Escherichia coli (GGAGHVPEYFVGIGTPISFYG; also: lasso cyclisation, places not given here)”, the “killing of pathogenic E. coli” value [1] is given as “able to kill” and the “killing of Salmonella” value [2] is given as “able to kill”.
